Assay results published in patent US20240060989A1, “METHODS FOR MEASURING CRALBP ACTIVITY” (NOVARTIS AG, priority 2019, published 2024).

Target: T1, human CRALBP protein (Homo sapiens, UniProt P12271)
T1 construct: purchased GeneTex GTX109228-pro
Experiment: CRALBP binding assay, Biacore surface plasmon resonance (proteinA/G capture)
Details: for Ka: 1:1 binding model, Biacore T200
Description: Binding of 11-cis-retinol to human CRALBP protein was assessed for affinity determinations using Biacore. Kinetic rate constants was performed via surface plasmon resonance (SPR) using the Biacore T200 instrument (Cytiva, formerly GE Healthcare Lifesciences) as described below. The proteinA/G capture method was utilized in order to determine kinetics for 11-cis-retinol.
Recombinant proteinA/G (PIERCE, Cat #21186) was immobilized on the chip surface by using amino-coupling procedure according to the supplier's instruction (Cytiva, BR-1000-50). This immobilized proteinA/G captured commercial anti-CRALBP mouse IgG (Sigma, WH0006017M1, lot #11319-1H7), which then captured human CARLBP protein (GeneTex, GTX109228-pro, lot #42226) on chip surface. The 11-cis-retinol (Biosynth Carbosynth, FR163659) flowed over as analyte.
The 11-cis-retinol concentration started at […] and was serially diluted at one part to one part for five levels of concentration. Regeneration was performed at the end of each cycle using Glycine-HCl pH2.0 (Cytiva, BR-1003-55). The sample dilution step and Biacore experiment were performed either under ambient light or dark condition in which the Biacore sample compartment door was covered by aluminum foil.
Double reference subtraction was completed to generate final data. Kinetic rate constants was obtained by applying 1:1 binding model with Biacore T200 evaluation 3.0 software, wherein the Rmax values were fit locally. Binding was assess under dark and ambient light conditions.

T1 sequence (P12271 whole entry): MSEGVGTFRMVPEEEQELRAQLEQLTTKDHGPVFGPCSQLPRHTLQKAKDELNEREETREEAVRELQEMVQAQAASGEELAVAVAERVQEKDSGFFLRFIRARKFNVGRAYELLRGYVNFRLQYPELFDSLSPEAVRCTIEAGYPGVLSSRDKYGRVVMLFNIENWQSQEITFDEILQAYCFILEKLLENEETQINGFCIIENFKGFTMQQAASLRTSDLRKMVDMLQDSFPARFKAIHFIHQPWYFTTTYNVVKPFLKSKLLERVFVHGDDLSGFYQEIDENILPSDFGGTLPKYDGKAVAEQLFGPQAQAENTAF

- binding to human CRALBP (ambient light (FIG. 2A)): able to bind
- Ka (ambient light): 12.69 M⁻¹ s⁻¹
- binding to human CRALBP (dark (FIG. 2B)): able to bind
- Ka (dark): 21.03 M⁻¹ s⁻¹
Compound: CC1=C(/C=C/C(C)=C/C=C\C(C)=C\CO)C(C)(C)CCC1 [11-cis-retinol]
